Reference: patent publication US11352317B2, “Rosin-based small molecular weight hydrogelator and its application” (Jiangnan University, priority 2019, dated 2022)

Legend:
[1] = Determination of surface tension (ring method); type: physicochemical; details: aqueous, 25° C.
Description: Determination of surface tension. A series of aqueous surfactant solutions having different concentrations were prepared, and the surface tension was measured by a ring method at 25° C., and the surface tension curve was plotted.

[2] = Determination of gel behavior (vial inversion); type: physicochemical
Description: To 1 mL of deionized water, 6-dehydroabietylamide-N,N-dimethyl-hexylamine oxide was added (concentrations were 4 mmol·L^−1, 10 mmol·L^−1, 15 mmol·L^−1, 20 mmol·L^−1, and 25 mmol·L^−1, respectively). The solution was heated to 40° C. to completely dissolve the 6-dehydroabietylamide-N,N-dimethyl-hexylamine oxide, and then allowed to stand at room temperature, and the solution state was investigated.
It can be seen from the photograph of the appearance of a gel formed by 6-dehydroabietylamide-N,N-dimethyl-hexylamine oxide in FIG. 5 (concentrations from left to right were 4 mmol·L^−1, 10 mmol·L^−1, 15 mmol·L^−1, 20 mmol·L^−1, and 25 mmol·L^−1, respectively) that when the concentration of 6-dehydroabietylamide-N,N-dimethyl-hexylamine oxide was greater than 4 mmol·L^−1, the 6-dehydroabietylamide-N,N-dimethyl-hexylamine oxide can support its own weight without flowing after invertion, indicating the formed gel has excellent viscoelasticity.
In a hydrogel formed by 4 mmol·L^−1 of 6-dehydroabietylamide-N,N-dimethyl-hexylamine oxide, the critical gelling concentration of the 6-dehydroabietylamide-N,N-dimethyl-hexylamine oxide was only 0.176%. Upon conversion, on average, each gelling agent molecule can immobilize 13,889 water molecules, showing extremely high gelling efficiency.

[3] = Cryo-TEM microstructure of the gel system; type: physicochemical; details: 5 mmol·L^−1 hydrogel
Description: Sample preparation was carried out using an environment controlled low temperature sample preparation device Cryoplunge TM3, and the ambient temperature was fixed at 25° C. The relative humidity in the device cavity was adjusted to over 90%, about 5 μL of the sample was pipetted onto the surface of the micro-grid, and the droplets on the surface of the micro-gate were absorbed by patting the sample with the filter paper on both sides of Cp3 to obtain a very thin liquid film. The sample was then quickly inserted into liquid ethane cooled liquid nitrogen. The frozen sample was transferred to a sample rod cooled with liquid nitrogen and transferred to a transmission electron microscope for observation at an operating voltage of 120 kV. It can be seen from the in situ frozen transmission electron micrograph of a hydrogel sample formed by 5 mmol·L^−1 6-dehydroabietylamide-N,N-dimethyl-hexylamine oxide in FIG. 8 that the microscopic morphology of the hydrogel was a relatively rigid nanofiber having a cross-sectional diameter of about 10 nm and a length of more than 2 μm.
The reason was that the 6-dehydroabietylamide-N,N-dimethyl-hexylamine oxide molecule formed a left-handed helical fiber structure having a diameter of about 10 nm by molecular self-assembly. […]

L929 cells = assay: 3D cell incubation in hydrogel, FDA/PI staining; type: cell-based; details: 3D incubation in hydrogel, 24 h, 48 h and 96 h
Description: L929 cells were encapsulated in a 6-dehydroabietylamide-N,N-dimethyl-hexylamine oxide gel under sterile conditions for 3D cell incubation. The cell suspension was added into the 6-dehydroabietylamide-N,N-dimethyl-hexylamine oxide solution with a sol state, and a cell/hydrogel system was formed within 30 s, and further incubated at 37° C. for 15 min. Thereafter, 2 mL of RPMI-1640 medium containing 10% FBS fetal bovine serum and 1% penicillin/streptomycin was gently added to the incubation dish, and the cell/hydrogel system was incubated in a humidified atmosphere of 37° C. and 5% CO2. The medium was replaced after 1 h of incubation and then replaced every 12 h. After incubation for 24 h, 48 h and 96 h, the cell/hydrogel system was stained with FDA/PI and the cells were observed by a confocal laser scanning microscope. […] It can be seen that 6-dehydroabietylamide-N,N-dimethyl-hexylamine oxide hydrogel can be used as a 3D cell incubation scaffold and had potential application in cell therapy and tissue regeneration.

[4] = Gel sustained-release performance test (in vitro release of embedded Rhodamine B); type: physicochemical; details: embedded in 20 mmol·L^−1 hydrogel, 37° C.
Description: Rhodamine B was embedded in a hydrogel formed by 20 mmol·L^−1 6-dehydroabietylamide-N,N-dimethyl-hexylamine oxide and in vitro release experiments were carried out in a constant temperature oscillating water bath at 37° C. The absorbance of the release solution was measured by an ultraviolet-visible spectrophotometer to obtain an in vitro release curve. […] It can be seen that the hydrogel formed by 6-dehydroabietylamide-N,N-dimethyl-hexylamine oxide had good sustained-release ability and can be used in the fields of drug sustained release and so on.

[5] = Circular dichroism spectrum of gel; type: physicochemical; details: 5 mmol·L^−1 gel, 300-180 nm
Description: The measurement was carried out on a circular dichroism spectrometer model MOS-450. The signal was recorded at intervals of 0.1 nm within the wavelength range of 300-180 nm. Gel samples were measured using a 0.1 mm quartz sample cell.

[6] = Preparation of O/W type gel emulsion at different oil-water ratios; type: physicochemical; details: 20 mmol·L^−1 stabilizer, oil phase volume fraction 10% to 90%
Description: An amount of 6-dehydroabietylamide amine oxide was added to a 22 mm (d)×52 mm (h) glass vial with a total volume of 10 mL. After adding a certain amount of deionized water, the vial was heated in a water bath at 50° C. until the 6-dehydroabietylamide amine oxide was completely dissolved to obtain a transparent solution. Different volumes of oil were added to the 6-dehydroabietylamide amine oxide solution (the volume ratios of 6-dehydroabietylamide amine oxide solution to oil were 1:9, 2:8, 3:7, 4:6, 5:5, 6:4, 7:3, 8:2, and 9:1, and total volume was 4 mL), then the mixture was emulsified at 11,000 r/min using an ultraturrax homogenizer (IKA T18 basic, S18N-10G head) for 2 min. The emulsion was allowed to stand and cool at a low temperature to form a white gel emulsion.

[7] = Gel emulsion stability test; type: physicochemical; details: 20° C.; for Stability: gel emulsion, 0.22% stabilizer
Description: To the 0.22% solution of 6-dehydroabietylamide amine oxide, different volumes of oil were added (the volume ratios of 6-dehydroabietylamide amine oxide solution to oil were 0.2:9.8, 3:7, 5:5,7:3, and 9.9: 0.1, and total volume was 4 mL), and then the mixture was emulsified at 11,000 r/min using an ultraturrax homogenizer (IKA T18 basic, S18N-10G head) for 2 min. The emulsion was allowed to stand and cool at a low temperature to form a white gel emulsion.
The prepared gel emulsion was placed in a 20° C. incubator, and the stability of the gel emulsion was observed. When the concentration of 6-dehydroabietylamide-N,N-dimethyl-hexylamine oxide as stabilizer was 0.22% of the mass of the continuous phase, and the volume fraction of the disperse phase was in the range of 1%-98%, a gel emulsion was formed.

[8] = Steady-state shear of comparative aqueous solutions; type: physicochemical; details: 5 mmol·L^−1 aqueous solution; for viscosity of the system (steady-state shear): high or low shear rates

Structure (SMILES) | critical micelle concentration [1] [mmol/L] | γcmc (surface tension at cmc) [1] [mN·m^−1] | water molecules immobilized per gelling agent molecule (on average) ([2]; at critical gelling concentration, upon conversion) | concentration at which gel supports its own weight without flowing after inversion ([2]; deionized water, dissolved at 40° C., stood at room temperature) | critical gelling concentration ([2]; in water, hydrogel formed by 4 mmol·L^−1, room temperature) [%] | cross-sectional diameter of nanofiber [3] | length of nanofiber [3] | viability and proliferation of L929 cells in the gel (L929 cells) | release rate of Rhodamine B ([4]; in 40 h) [%] | release rate of Rhodamine B ([4]; within 5 h) [%] | chiral aggregate structure of nanofiber (CD signal) [5] | stability of dodecane/hydrogel emulsion [6] | stability of the gel emulsion after placing for one year ([7]; 0.22% of the mass of the continuous phase, disperse phase volume fraction 1%-98%) | Stability ([7]; continuous phase 0.2, disperse phase 9.8) | Stability ([7]; continuous phase 3, disperse phase 7) | Stability ([7]; continuous phase 5, disperse phase 5) | Stability ([7]; continuous phase 7, disperse phase 3) | Stability ([7]; continuous phase 9.9, disperse phase 0.1) | gel formation [8] | viscosity of the system (steady-state shear) [8]
CC(C)c1ccc2c(c1)CCC1C(C)(C(=O)NCCCCCC[N+](C)(C)[O-])CCCC21C (stereo not shown) [6-dehydroabietylamide-N,N-dimethyl-hexylamine oxide] | 0.56 | 35 | 13,889 | greater than 4 mmol·L^−1 | 0.176 | about 10 nm | more than 2 μm | higher viability and proliferative ability | 76 | 28 | left-handed helix | no phase separation occurs | did not undergo demulsification | No demulsification occurs after incubation | No demulsification occurs after incubation | No demulsification occurs after incubation | No demulsification occurs after incubation | No demulsification occurs after incubation | – | –
CC(C)c1ccc2c(c1)CCC1C(C)(C(=O)NCC[N+](C)(C)[O-])CCCC21C (stereo not shown) [2-dehydroabietylamide-N,N-dimethyl-ethylamine oxide] | – | – | – | – | – | – | – | – | – | – | – | – | – | – | – | – | – | – | neither 2-dehydroabietylamide-N,N-dimethyl-ethylamine oxide nor 3-dehydroabietylamide-N,N-dimethyl-propylamine oxide could form a gel | comparable to the viscosity of water
CC(C)c1ccc2c(c1)CCC1C(C)(C(=O)NCCC[N+](C)(C)[O-])CCCC21C (stereo not shown) [3-dehydroabietylamide-N,N-dimethyl-propylamine oxide] | – | – | – | – | – | – | – | – | – | – | – | – | – | – | – | – | – | – | neither 2-dehydroabietylamide-N,N-dimethyl-ethylamine oxide nor 3-dehydroabietylamide-N,N-dimethyl-propylamine oxide could form a gel | comparable to the viscosity of water
